Experimental data published in patent US20050075371A1, “Methods and compositions for the oral administration of prodrugs of proton pump inhibitors” (ALLERGAN, INC., priority 2003, published 2005).

How the values were obtained:
[1] = Systemic half-life after oral or intravenous administration in dogs; assay type: in vivo, dogs (beagle); details: for Dog T1/2 Prodrug / Dog T1/2 PPI / half-life: oral solution, unit inferred; for Dog T1/2 Prodrug: half-life of intact prodrug, NC = plasma concentration of prodrug too low to calculate half-life, or undetected; for Dog T1/2 PPI / half-life: systemic half-life of the proton pump inhibitor; for t1/2 (systemic half-life in dogs after oral administration): Table 2D; for half-life: beagle, dog, blood, po, read-out: Dog T1/2 PPI (converted)
Procedure: (§1) Blood concentrations of the compounds omeprazole, lansoprazole, pantoprazole, rabeprazole, and test compounds were quantified using an achiral liquid chromatography tandem mass spectrometry method (LC-MS/MS). Systemic pharmacokinetic parameters were determined for omeprazole or lansoprazole using non-compartmental analysis in Watson® version 6.3, available from InnaPhase Corporation, Philadelphia, Pa.

[2] = Systemic half-life after oral or intravenous administration in rats; assay type: in vivo, rats (Sprague-Dawley); details: rats, oral solution; for Rat T1/2 Prodrug: half-life of intact prodrug, NC = plasma concentration of prodrug too low to calculate half-life, or undetected
Procedure: as §1

Caco-2 cells = experiment: Membrane permeability (Papp) across Caco-2 cell monolayer, apical to basolateral; assay type: in vitro ADME; details: Caco-2, apical to basolateral, 10 μM, 37° C.
Procedure: Determination of membrane permeability in all examples described herein was accomplished by the following procedure. This procedure is also used to determine whether a given prodrug falls within the scope of those claims given herein which relate to membrane permeability.
Caco-2 cells were seeded on Costar™ 12 mm diameter, 0.4 μm pore size transwell filters, and were cultured at 37° C., 5% CO2 in a humidified tissue culture chamber.
DMEM was equilibrated as a transport buffer in 37° C. water bath an hour before experiment. The cells were then equilibrated in transport buffer for 1 hr at 37° C.
Dosing solution (10 μM) was prepared by adding a 20 μL aliquot of a 10 mM stock solution of the prodrug to 20 mL of transport buffer.
Transport across Caco-2 cell monolayer was measured at 37° C., in the apical to basolateral direction (n=3).
Transport buffer was removed from both apical and basolateral compartment of filters. Dosing solution (0.2 mL) was added to the apical compartment of the cell layers on transwell filters, and 0.8 ml fresh pre-warmed transport buffer was added to basolateral compartment. Timing was started for transport, and at 5, 20, and 60 min after transport started, sample fluid (400 μL) was collected from the basolateral compartment. Fresh transport buffer (400 μL) was added back to the basolateral compartment, and the fluid was thoroughly mixed.
Transport samples, dosing solution, and standards(100 μL) each were mixed with 100 μl of a 500 ng/ml internal standard (Lansoprazole-D) for LC-MS/MS analysis, and part of each sample (100 μL) was vortexed and transferred into glass LC-MS/MS vials for analysis.
The apparent permeability coefficient (Papp, cm/sec), otherwise known herein as the membrane permeability, is determined from the following relationship: Papp=J/(ACo) where J (pmol/min) is the transport rate, meaning the rate of prodrug movement through the cell layer, A (cm^2) is the filter surface area, and Co (μM) is the initial dosing concentration.
The transport rate J, is calculated as the slope of the linear regression fit for the transport amount over time data using Microsoft Excel® 97 SR-2 (Microsoft Corp. Redmond, Wash.).
Lucifer yellow (LY) was used as a paracellular permeability reference standard to determine integrity of cell layers used in the experiments. LY transport in the apical to basolateral direction was carried out in the same manner as described above. Fluorescence level in basolateral fluid sampled at 5, 20, and 60 min post dose was determined using Fluostar Galaxy (BMG Labtechnologies, Durham, N.C.) at excitation/emission wavelengths of 485/520 nm. A standard curve covering the range from 0.002 to 0.5 mg/mL is constructed to quantify the amount of LY in the transport sample to calculate permeability coefficient (Papp).

[3] = systemic half-life of the proton pump inhibitor, unit inferred

SMILES	Dog T1/2 Prodrug [1]	Dog T1/2 PPI [1]	Rat T1/2 PPI [2, 3]	other results
COC(=O)COc1ccc(S(=O)(=O)n2c([S+]([O-])Cc3ncc(C)c(OC)c3C)nc3cc(OC)ccc32)cc1 (centres unmarked) [Compound 20]	–	162 min	–	–
COc1ccc2c(c1)nc([S+]([O-])Cc1ncc(C)c(OC)c1C)n2S(=O)(=O)c1c(C)cc(OCC(C)(C)C(=O)O)cc1C (centres unmarked) [Compound 4]	75.6 min	50.2 min	42.5 min	Rat T1/2 Prodrug ([2]; unit inferred): 20.5 min; t1/2 (systemic half-life in dogs after oral administration) [1]: 50.4 min; Permeability (Caco-2 cells): 5.2 nm/s
COc1ccnc(C[S+]([O-])c2nc3cc(OC(F)F)ccc3n2S(=O)(=O)c2ccc(OCC(=O)O)cc2)c1OC (centres unmarked) [Compound 28]	–	157 min	87 min	–
COc1ccc2c(c1)nc([S+]([O-])Cc1ncc(C)c(OC)c1C)n2S(=O)(=O)c1ccc(OCC(=O)O)c(C(=O)O)c1 (centres unmarked) [Compound 23]	–	73.2 min	163 min	–
COc1ccnc(C[S+]([O-])c2nc3ccc(OC(F)F)cc3[nH]2)c1OC (centres unmarked) [Pantoprazole, reference compound]	–	–	–	half-life ([2]; Sprague-Dawley, rat, blood, systemic half-life of the proton pump inhibitor, unit inferred, read-out: Rat T1/2 PPI (converted)): 41.8 min; half-life [1]: 44.6 min
COc1ccc2c(c1)nc([S+]([O-])Cc1ncc(C)c(OC)c1C)n2S(=O)(=O)c1ccc(CC(=O)O)cc1 (centres unmarked) [Compound 5]	16.1 min	61.8 min	102 min	t1/2 (systemic half-life in dogs after oral administration) [1]: 60 min; Permeability (Caco-2 cells): 1.7 nm/s
COc1ccc2c(c1)nc([S+]([O-])Cc1ncc(C)c(OC)c1C)n2S(=O)(=O)c1c(C)cc(OCC(=O)O)cc1C (centres unmarked) [Compound 2]	6.78 min	96.6 min	–	t1/2 (systemic half-life in dogs after oral administration) [1]: 96 min; Permeability (Caco-2 cells): 0.54 nm/s
COCCCOc1ccnc(C[S+]([O-])c2nc3ccccc3n2S(=O)(=O)c2c(C)cc(OCC(=O)O)cc2C)c1C (centres unmarked) [Compound 32]	31.6 min	91.2 min	–	–
Cc1c(OCC(F)(F)F)ccnc1C[S+]([O-])c1nc2ccccc2n1S(=O)(=O)c1ccc(CC(=O)O)c(CC(=O)O)c1 (centres unmarked) [Compound 12]	–	55.9 min	–	–
COCCCOc1ccnc(C[S+]([O-])c2nc3ccccc3[nH]2)c1C (centres unmarked) [Rabeprazole, reference compound]	–	–	–	half-life [1]: 22.1 min
Cc1c(OCC(F)(F)F)ccnc1C[S+]([O-])c1nc2ccccc2n1S(=O)(=O)c1ccc(OCC(=O)O)c(OCC(=O)O)c1 (centres unmarked) [Compound 35]	–	–	110 min	–
COc1ccc2c(c1)nc([S+]([O-])Cc1ncc(C)c(OC)c1C)n2S(=O)(=O)c1ccc(C(=O)O)c(C(=O)O)c1 (centres unmarked) [Compound 22]	–	233 min	–	–
COc1ccc2c(c1)nc([S+]([O-])Cc1ncc(C)c(OC)c1C)n2S(=O)(=O)c1cc(C(=O)O)ccc1C (centres unmarked) [Compound 27]	7.02 min	66 min	130 min	–
COc1ccc2c(c1)nc([S+]([O-])Cc1ncc(C)c(OC)c1C)n2S(=O)(=O)c1ccc(OCC(=O)O)c(OCC(=O)O)c1 (centres unmarked) [Compound 24]	–	82.2 min	23 min	–
COCCCOc1ccnc(C[S+]([O-])c2nc3ccccc3n2S(=O)(=O)c2ccc(C(=O)O)cc2)c1C (centres unmarked) [Compound 33]	44.8 min	53.6 min	–	–
COc1ccc2c(c1)nc([S+]([O-])Cc1ncc(C)c(OC)c1C)n2S(=O)(=O)c1ccc(OCC(C)(C)C(=O)O)cc1 (centres unmarked) [Compound 3]	18.7 min	48.8 min	106 min	t1/2 (systemic half-life in dogs after oral administration) [1]: 48.6 min; Permeability (Caco-2 cells): 3.8 nm/s
COc1ccc2c(c1)nc([S+]([O-])Cc1ncc(C)c(OC)c1C)n2S(=O)(=O)c1cccc(C(=O)O)c1 (centres unmarked) [Compound 6]	18.2 min	115 min	116 min	t1/2 (systemic half-life in dogs after oral administration) [1]: 114 min; Permeability (Caco-2 cells): 0.67 nm/s
COCCCOc1ccnc(C[S+]([O-])c2nc3ccccc3n2S(=O)(=O)c2cccc(C(=O)O)c2)c1C (centres unmarked) [Compound 30]	67.2 min	29.5 min	–	–
COc1ccnc(C[S+]([O-])c2nc3cc(OC(F)F)ccc3n2S(=O)(=O)c2cc(C(=O)O)ccc2C)c1OC (centres unmarked) [Compound 29]	–	57.5 min	60.6 min	–
Cc1cc(OCC(=O)O)cc(C(C)C)c1S(=O)(=O)n1c([S+]([O-])Cc2nccc(OCC(F)(F)F)c2C)nc2ccccc21 (centres unmarked) [Compound 17]	89.4 min	67.8 min	–	–

The next lines start with results.

Dog T1/2 Prodrug [1]	Dog T1/2 PPI [1]	Rat T1/2 PPI [2, 3]	SMILES	other results
50.6 min	51.3 min	–	COCCCOc1ccnc(C[S+]([O-])c2nc3ccccc3n2S(=O)(=O)c2cc(C(=O)O)ccc2C)c1C (centres unmarked) [Compound 31]	–
–	–	85.8 min	COc1ccc(S(=O)(=O)n2c([S+]([O-])Cc3nccc(OCC(F)(F)F)c3C)nc3ccccc32)cc1CCC(=O)O (centres unmarked) [Compound 38]	Rat T1/2 Prodrug ([2]; unit not given): 1.04 (0.35)
7.32 min	106 min	141 min	Cc1ccc(C(=O)O)cc1S(=O)(=O)n1c([S+]([O-])Cc2nccc(OCC(F)(F)F)c2C)nc2ccccc21 (centres unmarked) [Compound 13]	–
–	64.8 min	108 min	COc1ccc(S(=O)(=O)n2c([S+]([O-])Cc3nccc(OCC(F)(F)F)c3C)nc3ccccc32)cc1C(=O)O (centres unmarked) [Compound 8]	t1/2 (systemic half-life in dogs after oral administration) [1]: 66 min; Permeability (Caco-2 cells): 2.3 nm/s
–	59.3 min	–	Cc1c(OCC(F)(F)F)ccnc1C[S+]([O-])c1nc2ccccc2n1S(=O)(=O)c1ccc(OCC(=O)O)cc1 (centres unmarked) [Compound 10]	–
12.4 min	53.6 min	116 min	Cc1c(OCC(F)(F)F)ccnc1C[S+]([O-])c1nc2ccccc2n1S(=O)(=O)c1cccc(C(=O)O)c1 (centres unmarked) [Compound 7]	t1/2 (systemic half-life in dogs after oral administration) [1]: 53.4 min; Permeability (Caco-2 cells): 1.6 nm/s
–	–	66.6 min	Cc1cc(OCC(=O)O)cc(C)c1S(=O)(=O)n1c([S+]([O-])Cc2nccc(OCC(F)(F)F)c2C)nc2ccccc21 (centres unmarked) [Compound 34]	–
–	60 min	112 min	Cc1c(OCC(F)(F)F)ccnc1C[S+]([O-])c1nc2ccccc2n1S(=O)(=O)c1ccc(C(=O)O)c(OCC(=O)O)c1 (centres unmarked) [Compound 16]	–
7.08 min	83.4 min	32.2 min	COc1ccc(C(=O)O)cc1S(=O)(=O)n1c([S+]([O-])Cc2nccc(OCC(F)(F)F)c2C)nc2ccccc21 (centres unmarked) [Compound 14]	–
–	52.4 min	56 min	Cc1c(OCC(F)(F)F)ccnc1C[S+]([O-])c1nc2ccccc2n1S(=O)(=O)c1ccc(OCC(C)(C)C(=O)O)cc1 (centres unmarked) [Compound 11]	–
–	53.6 min	20.5 min	Cc1c(OCC(F)(F)F)ccnc1C[S+]([O-])c1nc2ccccc2n1S(=O)(=O)c1ccc(CC(=O)O)cc1 (centres unmarked) [Compound 9]	t1/2 (systemic half-life in dogs after oral administration) [1]: 53.4 min; Permeability (Caco-2 cells): 3.4 nm/s
–	–	131 min	Cc1cc(C(=O)O)ccc1S(=O)(=O)n1c([S+]([O-])Cc2nccc(OCC(F)(F)F)c2C)nc2ccccc21 (centres unmarked) [Compound 37]	–
–	–	23.3 min	Cc1c(OCC(F)(F)F)ccnc1C[S+]([O-])c1nc2ccccc2n1S(=O)(=O)c1ccc(C(=O)O)cc1 (centres unmarked) [Compound 36]	–
110 min	29 min	–	Cc1ccc(S(=O)(=O)n2c([S+]([O-])Cc3nccc(OCC(F)(F)F)c3C)nc3ccccc32)cc1CCC(=O)O (centres unmarked) [Compound 19]	–
5.39 min	54.5 min	–	Cc1c(OCC(F)(F)F)ccnc1C[S+]([O-])c1nc2ccccc2n1S(=O)(=O)c1ccc(C(=O)O)cc1 (centres unmarked) [Compound 18]	–
